The nature of series [1]: Stability of PA-96 in prepared samples under different storage conditions. The following applies: within 7 days; +23 °C, +4 °C, −70 °C. The class given is physicochemical. The procedure:
The stability of PA-96 in the prepared samples was investigated at different storage conditions, as mentioned in the experimental methods section.
(§1) To study the influence of the enzymes on the PA-96 stability in whole blood, mice blood spikes containing PA-96 in the concentration of 50 ng/mL were prepared. Aliquots of the spike were precipitated according to the protocol described above. Sampling was carried out at the following timepoints: 5, 10, 20, 30, 40, 50, 120, 180, and 240 min. The long-term stability of the samples was studied by the comparison of freshly prepared samples and samples prepared and kept in different conditions for 7 days. The storage conditions were the following: room temperature (+23 °C), household fridge (+4 °C), and Kelvinator (−70 °C). The acceptance criterion was a CV ≤ 15% for every day and any storing condition.

Series [2] can be described thus: Stability of PA-96 in whole mouse blood. Type of series: in vitro ADME, mice. The conditions noted are these: spike 50 ng/mL, 5-240 min.
From the text: A crucial factor to consider is the stability of the compound in biological matrices. Both whole blood and plasma may contain enzymes able to metabolise the substance, and the metabolism rate can be relatively high. This can result in a rapid decrease in the substance concentration and an incorrect calibration curve. Additionally, if blood samples from experimental animals are dried as spots, metabolism during drying may lead to incorrect analyte concentrations. Considering these factors, we investigated the stability of the agent PA-96 in whole mouse blood.
as §1

Series [3] in a line: Pharmacokinetics of PA-96 after double p.o. administration to mice. Type of series: in vivo, CD-1 mice. The following applies: for AUC(0-t) / Cmax / half-life / Vd/F: 5 mg/kg; for Vd/F: read-out: Vz/F_obs. The procedure:
In our work, an experiment with double administration of the agent PA-96 was carried out. The substance was administered to mice (n = 6) two times at doses of 5 mg/kg within the interval of 4 h as a formulation in Tween-80. After the first administration, blood was collected from the tail vein of each animal at 5, 10, 20, 30, 40, 50, 60, 75, and 90 min, and 2, 2.5, 3, 3.5, and 4 h. After the administration of the second dose, blood was collected at the same timepoints, and all samples were prepared following the PPT protocol.
The LC–MS/MS analysis was carried out using a Shimadzu LC-20AD Prominence chromatograph equipped with a cooling autosampler, binary gradient pump, and column oven (Shimadzu, Japan) coupled with a 3200 QTRAP mass spectrometer (AB SCIEX, Framingham, MA, USA) equipped with an electrospray ionisation source (ESI). The mass spectrometer worked in positive mode and multiple reaction monitoring (MRM) detection mode for quantitation. Analyst 1.6.2 software (AB SCIEX, Framingham, MA, USA) was used for instrument control and data acquisition, and MultiQuant 2.1 software (AB SCIEX, Framingham, MA, USA) was used for quantitation. To calculate the main pharmacokinetic parameters, the Microsoft Excel plugin PKSolver was used.
CD-1 mice (male and female) were obtained from the SPF vivarium of the Institute of Cytology and Genetics, Russia. The mice weighed 25–30 g at the beginning of the experiment.
To investigate the pharmacokinetics of PA-96 in a multiple dosing regimen, the dosage form was prepared as described above, but only half was administered to the animals (n = 6). The first portion, corresponding to a dose of 5 mg/kg, was administered to the mice followed by blood sampling at 5, 10, 20, 30, 40, 50, 60, 75, and 90 min, and 2, 2.5, 3, 3.5, and 4 h after administration. At the latter timepoint, the second dose was administered, and the blood was sampled at the same timepoints as listed above.

Where [4] appears, read: both sexes, CD-1, mouse, whole blood, po, double p.o. 2×5 mg/kg, 1st administration, mean ± SEM, n = 6.
Where [5] appears, read: both sexes, CD-1, mouse, whole blood, po, double p.o. 2×5 mg/kg, 2nd administration, mean ± SEM, n = 6.

The structures appear in SMILES notation. Where two headings read alike, the source gives them in different places.

A word on the AUC(0-t): it is the area under the concentration-time curve up to a stated or last time point. One may read the Cmax as the peak of the concentration-time curve. What is called half-life is how long it takes for the measured level to halve. Lower therefore signals fast loss. For orientation: Tmax means the time from dosing to the highest level. As to `C=C(C)[C@@H]1CC=C(C)[C@@H](Sc2nc[nH]n2)[C@@H]1O` [PA-96], the “Change of PA-96 concentration in prepared samples” value in series [1] is at most 11%. In addition, the “PA-96 concentration in whole mouse blood during stability investigation” value in series [2] is on record as “consistent within the accuracy of analysis error”. For the same compound, in series [3] (setting [4]), the exposure AUC(0-t) amounted to 25 ng·h/mL, the concentration peaked (Cmax) at 60 ± 15 ng/mL, the half-life is 21 ± 4 min and the Vd/F is 108 ± 25 L/kg. Besides, in series [3] (setting [5]), the exposure AUC(0-t) worked out at 135 ng·h/mL, the Cmax came to 58 ± 13 ng/mL, the half-life was found to be 19 ± 3 min and the Vd/F stood at 25 ± 4 L/kg. For the same compound, the Tmax in series [3] (both sexes, CD-1, mouse, whole blood, po, double p.o. 2×5 mg/kg, interval 4 h, 1st administration, mean ± SEM, n = 6) is 10 min. In addition, the “Accumulation after double administration (Cmax, AUC0-∞)” value in series [3] (double p.o. 2×5 mg/kg, interval 4 h, mice) is “absence of its accumulation”. In addition, in series [3] (p.o. 5 mg/kg, double administration experiment, mice), the “Time to full elimination after administration” value was determined as 4 h.

These data come from article PMC11434290, “Pharmacokinetics and Dose Proportionality Study of a Novel Antiparkinsonian Agent, a 1H-1,2,4-Triazol-3-ylthio-conjugate of Prottremine” (Molecules, 2024).
